Literature values, collected in PMC11451938 (RSC Medicinal Chemistry, 2024).

Target: hNTS1
Conditions: read-out: NTS1 Ki; CHO-K1 cells expressing hNTS1

**Q.** With “JMV 438: NT[8-13] in which the Arg8-Arg9 fragment was replaced with Lys8-Lys9” as the substance, how does the Ki read?
**A.** 4 nM
